Legend:
in vivo = details: Wistar, rat
[1] = hexadecane/water, pH 7.4
physchem [2] = details: octanol/water, pH 7.4
physchem [3] = details: octanol/water
[4] = hexadecane/water
Description: Hexadecane-water partition coefficient, log P of the compound

[5] = octanol/water
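For Kp in this document: drug concentration in brain divided by that in blood, measured in Wistar rats.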

SMILES | logD [1] | logD (physchem [2]) | further results
CN1Cc2c(-c3noc(C(C)(O)CO)n3)ncn2-c2cccc(Cl)c2C1=O (configuration not stated) |  |  | Kp (in vivo; brain): 0.0151
CN1Cc2c(-c3noc(C(C)(C)O)n3)ncn2-c2cccc(Cl)c2C1=O |  |  | Kp (in vivo; brain / blood): 0.0457
CN1C(=O)c2ccccc2C1=O | -0.15 | 1.32 | 
Cn1c(=O)ccc2ccccc21 | -0.15 | 1.52 | 
CC(C)c1nc(-c2ncn3c2CN(C)C(=O)c2c(Cl)cccc2-3)no1 |  |  | Kp (in vivo; brain / blood): 0.501
[O-][S+](c1ccccc1)c1ccccc1 | 0.66 | 2.1 | 
Cn1cnc2ccccc21 | -0.89 | 1.34 | 
O=C1CCCN1Cc1ccccc1 | -0.6 | 1.32 | 
CN1C(=O)Cc2ccccc21 | 0 | 1.25 | 
O=C1Cc2ccccc2CO1 | -0.29 | 1.02 | 
Clc1ccc(Cn2ccnn2)cc1 |  |  | logP (physchem [3]): 1.78
c1cnc2cccnc2c1 | -0.49 | 0.79 | 
CN(C)C(=O)N(C)c1ccccc1 | 0.16 | 1.6 | 
CN(C)C(=O)c1ccccc1 | -0.98 | 0.71 | 
O=c1ccccn1Cc1cccc(Cl)c1 | -0.03 | 2.09 | 
Clc1ccc2ncncc2c1 |  |  | logP (physchem [3]): 1.78
c1ccc2c(c1)COC2 | 1.36 | 1.74 | 
CN(C)C(=O)Cc1ccc(Br)cc1 | 0.07 | 1.83 | 
Cn1c(=O)n(C)c2ccccc21 | 0.53 | 1.33 | 
Cc1cnccn1 |  |  | logP (physchem [3]): 0.23

SMILES | logD [1] | logD (physchem [2]) | further results
CC(=O)N(C)c1ccccc1 | -0.54 | 1 | 
Cc1ccc2occc(=O)c2c1 | 0.56 | 1.9 | 
[O-][S+](CC1CCCCC1)c1ccccc1 (configuration not stated) | 1.23 | 2.81 | 
CCN1C(=O)Cc2ccccc21 | 0.49 | 1.69 | 
COc1ccc(C#N)cc1 | 0.92 | 1.75 | 
O=C1CCCN1CCCCN1CCN(c2cc(C(F)(F)F)ccn2)CC1 |  |  | Kp (in vivo; brain): 1.45
Cc1cccc2c1Oc1ccccc1[C@@]1(O)CCN(C)C[C@@H]21 |  |  | Kp (in vivo; brain): 6.61
Clc1ccc2c(c1)[C@H]1CNC[C@@H]1c1ccccc1O2 |  |  | Kp (in vivo; brain / blood): 2.45
Cc1ccc2c(c1)c(C)cc(C)[n+]2[O-] | -0.57 | 1.71 | 
CN1Cc2ccccc2C1=O | -1.07 | 0.87 | 
O=c1ccccn1Cc1ccccc1 | -0.72 | 1.37 | 
O=c1ccn(Cc2ccc(-c3ccccc3)cc2)cc1 | -1.76 | 2.47 | 
O=c1ccccn1Cc1ccc(C(F)(F)F)cc1 | 0.18 | 2.47 | 
CCn1c(C)cc(=O)c2ccc(Cl)cc21 | -1.4 | 1.8 | 
Clc1ccc2cc[nH]c2c1 | 1.36 | 3.22 | 
Cc1cccc2c1Oc1ccccc1[C@@]1(O)CCNC[C@@H]21 |  |  | Kp (in vivo; brain): 3.31
Clc1ccccn1 [2-CHLOROPYRIDINE] | 0.52 | 1.23 | 
O=S(=O)(c1ccccc1)c1ccccc1 [(PHENYLSULFONYL)BENZENE] | 0.75 | 2.41 | 
CC(=O)c1ccccc1 [ACETOPHENONE] | 0.96 | 1.61 | logP [4]: 1.12
CN(C)CCC=C1c2ccccc2CCc2ccccc21 [AMITRIPTYLINE] |  |  | Kp (in vivo; brain / blood): 9.55

SMILES | logD [1] | logD (physchem [2]) | further results
COc1ccccc1 [ANISOLE] | 1.9 | 2.15 | logP [4]: 2.13
CN1C[C@@H]2c3ccccc3Oc3ccc(Cl)cc3[C@H]2C1 [ASENAPINE] |  |  | Kp (in vivo; brain): 10.7
N#Cc1ccccc1 [BENZONITRILE] | 0.91 | 1.56 | logP [4]: 0.99
c1ccc2nocc2c1 [BENZO[C]ISOXAZOLE] | 0.75 | 1.49 | 
c1ccc(Cn2ccnc2)cc1 [BENZYLIMIDAZOLE] | -0.83 | 1.55 | 
c1ccc2nnccc2c1 [CINNOLINE] |  |  | logP (physchem [3]): 1.01
CNCCCN1c2ccccc2CCc2ccccc21 [DESIPRAMINE] |  |  | Kp (in vivo; brain): 10
CN(C)CCCN1c2ccccc2CCc2ccccc21 [IMIPRAMINE] |  |  | Kp (in vivo; brain / blood): 11.2
c1ccc2[nH]ccc2c1 [INDOLE] | 0.66 | 2.24 | 
N#Cc1ccncc1 [ISONICOTINONITRILE] |  |  | logP [5]: 0.46
c1ccc2cnccc2c1 [ISOQUINOLINE] | 0.98 | 2.09 | 
CN1CCN2c3ncccc3Cc3ccccc3C2C1 (configuration not stated) [MIRTAZAPINE] |  |  | Kp (in vivo; brain): 3.39
O=[N+]([O-])c1ccccc1 [NITROBENZENE] |  | 1.83 | 
Cc1nc2n(c(=O)c1CCN1CCC(c3noc4cc(F)ccc34)CC1)CCCC2O (configuration not stated) [PALIPERIDONE] |  |  | Kp (in vivo; brain / blood): 0.214
COc1ccc(CN(CCN(C)C)c2ccccn2)cc1 [PYRILAMINE] |  |  | Kp (in vivo; brain): 3.09
c1ccc2ncccc2c1 [QUINOLINE] |  | 1.99 | 
c1ccc2nccnc2c1 [QUINOXALINE] | 0.47 | 1.31 | 
Cc1nc2n(c(=O)c1CCN1CCC(c3noc4cc(F)ccc34)CC1)CCCC2 [RISPERIDONE] |  |  | Kp (in vivo; brain): 0.955

From ChEMBL document CHEMBL1155018, “Toward prediction of alkane/water partition coefficients” (J Med Chem, 2008)
